Experimental data reported in patent US8404694B2, “Aurora kinase modulators and method of use” (Amgen Inc., priority 2008, dated 2013).

Key:
AuroraA-TPX2 = molecular target: T1, AuroraA-TPX2 (Homo sapiens, UniProt O14965); experiment: AuroraA-TPX2 Homogeneous Time Resolved Fluorescent (HTRF) kinase assay; type: biochemical; settings: ATP about 1 μM, biotinylated PLK peptide, read-out: AurA_IC50—IP (Avg)
T1 construct: 20 μL of AuroraA-TPX2 KD GST; GST
T1 sequence (O14965 133-383 limits assumed): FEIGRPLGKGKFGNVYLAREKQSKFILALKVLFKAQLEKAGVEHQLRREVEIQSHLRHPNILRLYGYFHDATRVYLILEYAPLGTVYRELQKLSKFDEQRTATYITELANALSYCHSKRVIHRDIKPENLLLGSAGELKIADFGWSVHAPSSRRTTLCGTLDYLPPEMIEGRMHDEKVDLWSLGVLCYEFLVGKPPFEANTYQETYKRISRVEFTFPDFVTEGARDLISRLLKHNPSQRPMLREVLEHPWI
T1 sequence (Q9ULW0 1-747 partner): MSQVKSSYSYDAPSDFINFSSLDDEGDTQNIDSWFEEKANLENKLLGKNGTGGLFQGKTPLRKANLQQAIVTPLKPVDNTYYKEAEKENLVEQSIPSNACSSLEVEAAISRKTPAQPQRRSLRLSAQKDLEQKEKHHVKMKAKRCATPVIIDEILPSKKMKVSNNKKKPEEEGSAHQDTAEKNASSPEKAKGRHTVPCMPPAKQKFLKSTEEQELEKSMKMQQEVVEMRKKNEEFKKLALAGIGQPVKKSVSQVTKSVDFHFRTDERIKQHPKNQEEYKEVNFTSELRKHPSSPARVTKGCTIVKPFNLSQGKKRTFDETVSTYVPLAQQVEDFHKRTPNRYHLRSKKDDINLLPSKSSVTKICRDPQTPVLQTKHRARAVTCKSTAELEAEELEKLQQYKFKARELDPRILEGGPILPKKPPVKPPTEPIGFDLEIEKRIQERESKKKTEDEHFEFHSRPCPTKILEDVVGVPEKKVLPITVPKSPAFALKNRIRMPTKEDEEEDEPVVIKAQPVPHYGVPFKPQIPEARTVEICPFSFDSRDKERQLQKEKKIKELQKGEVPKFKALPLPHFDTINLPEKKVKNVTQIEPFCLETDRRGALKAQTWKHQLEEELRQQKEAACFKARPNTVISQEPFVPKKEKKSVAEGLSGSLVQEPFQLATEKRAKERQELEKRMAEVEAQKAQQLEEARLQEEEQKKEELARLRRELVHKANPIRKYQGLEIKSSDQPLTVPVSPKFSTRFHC
Protocol: AuroraA-TPX2-Homogeneous Time Resolved Fluorescent (HTRF) Kinase Assay:
The Aurora-A HTRF assay begins with Aurora-A in the presence of ATP phosphorylating the biotinylated peptide PLK. The reaction incubates for about 120 min. Detection reagents are added to quench the reaction. These agents stop the reaction by diluting out the enzyme and chelating the metals due to the presence of EDTA. After addition, the assay is incubated overnight to allow the detection reagents to equilibrate.
The AuroraA HTRF assay comprises 1 μL of compound in 100% DMSO, 20 μL of ATP and biotinylated PLK, and 20 μL of AuroraA-TPX2 KD GST for a final volume of about 41 μL. The final concentration of PLK is about 1 μM. The final concentration of ATP is about 1 μM (Km(app)=1 μM+/−0.1) and the final concentration of AuroraA is about 5 nM. Buffer conditions are as follows: 60 mM HEPES pH 7.5, 25 mM NaCl, 10 mM MgCl, 2 mM DTT, 0.05% BSA.
(§1) The assay is quenched and stopped with 160 μL of detection reagent. Detection reagents are as follows: Buffer made of 50 mM Tris, pH 7.5, 100 mM NaCl, 3 mM EDTA, 0.05% BSA, 0.1% Tween20. Added to this buffer prior to reading is Steptavidin allophycocyanin (SA-APC) at a final conc in the assay of 0.0005 mg/mL, and europilated anti-phosphoPLK Ab (Eu-anti-PLK) at a final conc of 0.02 nM.
(§2) The assay plate is read in either a Discovery or a RubyStar. The eu-anti-PLK is excited at 320 nm and emits at 615 nm to excite the SA-APC which in turn emits at 655 nm. The ratio of SA-APC at 655 nm (excited due to close proximity to the Eu-anti-PLK because of phosphorylation of the peptide) to free Eu-anti-PLK at 615 nm will give substrate phosphorylation.
(§3) Many of the Examples described herein were tested, and found to be active compounds. Table I includes related biological data, which may be interpreted using the activity gauge below: […]

HeLa cells = experiment: HeLa cell 24 hr ploidy assay; type: cell-based; settings: Homo sapiens, 24 hrs treatment, DNA content (ploidy), read-out: 24 h_4N Ploidy EC50—IP (Avg)
Protocol: HeLa Cell 24 hr Ploidy Assay Protocol
The purpose of this assay is to evaluate the ability of selected individual compounds to induce Deoxyribonucleic acid (DNA) content (ploidy) in cells thought failed cell division. Cell cycle analysis is a rapid and efficient way to evaluate the status of DNA content (ploidy) of a given cell. HeLa cells (1×10^4 HeLa cells/well) in 100 ul of media (MEM+10% FBS) were plated in 96-well plates (Packard View) and cultured for 24 hrs at 37° C. maintained in a 5% CO2 atmosphere. The following day, cells were treated for 24 hrs with inhibitor compounds (10 pt. Dose ranging from 0.0024-1.25 umol/L). The compounds were serially diluted in DMSO (0.25% final concentration). The cells were fixed (3.7% Formaldehyde and 1% glutaraldehyde) and permeabilized (1×PBS with 1% BSA and 0.2% Triton X-100) in preparation for nuclear staining. The well plates were stained for 45 minutes at RT in the dark using Hoechest 33342 nuclear stain at 0.5 ug·ml (Stock of 10 mg/ml, Invitrogen, CA, Cat # H3570). The nuclear stain was removed by aspiration and the cells were washed with wash buffer. A Cellomics Array Scan Vti plate reader was used to acquire the DNA ploidy data of the cells using Cell Cycle bioapplication. Numbers for each of “valid cell count/well”, “% of 4N cells” and “% of >4Ncells” were calculated with the assistance of an Activity Base 5.1ca software and dose curves were generated using an XLFit software. With XLFit, final EC50 IP and EC50 transit values, as well as the Max and Min, were calculated for each curve. Many of the Examples described herein were tested, and fund to be active compounds. Table I includes related biological data in the 24 h cell-ploidy content assay, which may be interpreted using the activity gauge below: […]

AuroraB = molecular target: T2, AuroraB (Homo sapiens, UniProt Q96GD4); experiment: AuroraB Homogeneous Time Resolved Fluorescent (HTRF) kinase assay; type: biochemical; settings: ATP 23 μM, biotinylated Histone H3 peptide, read-out: AurB_IC50—IP (Avg)
T2 construct: 20 μL of AuroraB FL His; His
Protocol: AuroraB-Homogeneous Time Resolved Fluorescent (HTRF) Kinase Assay:
The AuroraB HTRF assay begins with AuroraB in the presence of ATP phosphorylating the biotinylated peptide Histone H3. The reaction incubates for about 90 min. the reaction is quenched by addition of detection reagents, which stop the reaction by diluting out the enzyme and chelating the metals due to the presence of EDTA. After addition, the assay is incubated for about 60 min to allow detection reagents to equilibrate.
The AuroraB HTRF assay comprises 1 μL of compound in 100% DMSO, 20 μL of ATP and biotinylated Histone H3, and 20 μL of AuroraB FL His for a final volume of 41 μL. The final concentration of Histone H3 is 0.1 μM. The final concentration of ATP is 23 μM (Km(app)=23 μM+/−2.6) and the final concentration of AuroraB is 400 pM. Buffer conditions are as follows: 50 mM HEPES pH 7.5, 5 mM NaCl, 0.5 mM MgCl, 0.5 mM MnCl, 2 mM DTT, 0.05% BSA.
as §1, with “0.001” for “0.0005”, “anti-phosphoHistoneH3” for “anti-phosphoPLK”, “(Eu-anti-His H3)” for “(Eu-anti-PLK)”, “0.064” for “0.02”
as §2, with “eu-anti-His H3” for “eu-anti-PLK”, “Eu-anti-His H3” for “Eu-anti-PLK”
as §3

T2 sequence (Q96GD4 whole entry): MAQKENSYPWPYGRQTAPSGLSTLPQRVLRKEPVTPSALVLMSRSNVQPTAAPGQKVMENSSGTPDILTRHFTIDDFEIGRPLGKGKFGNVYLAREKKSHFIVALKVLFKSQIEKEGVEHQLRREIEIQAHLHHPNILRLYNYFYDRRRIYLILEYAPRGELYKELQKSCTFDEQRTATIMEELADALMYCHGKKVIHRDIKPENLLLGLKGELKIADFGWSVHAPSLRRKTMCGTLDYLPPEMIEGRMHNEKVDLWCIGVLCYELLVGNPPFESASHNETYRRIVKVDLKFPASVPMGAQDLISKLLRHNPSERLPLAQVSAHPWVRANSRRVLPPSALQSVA

Structure (SMILES)	IC50 (AuroraA-TPX2) [nM]	EC50 (HeLa cells) [nM]	IC50 (AuroraB) [nM]
Cc1ccc(-c2nnc(Nc3ccc(Sc4ccnc5ccnn45)cc3)c3ccccc23)nc1 [Example 21, 4-(5-methyl-2-pyridinyl)-N-(4-(pyrazolo[1,5-a]pyrimidin-7-ylthio)phenyl)-1-phthalazinamine]	< 100	< 100	< 100
c1ccc(-c2nnc(Nc3ccc(Sc4ccnc5cc(C6CC6)nn45)cc3)c3ccccc23)cc1 [Example 22, N-(4-((2-cyclopropylpyrazolo[1,5-a]pyrimidin-7-yl)thio)phenyl)-4-phenyl-1-phthalazinamine]	100 to 500	< 100	< 100
COCCOc1cc2nccc(Sc3ccc(Nc4nnc(-c5cc(C)cs5)c5ccccc45)cc3)n2n1 [Example 28, N-(4-((2-((2-(methyloxy)ethyl)oxy)pyrazolo[1,5-a]pyrimidin-7-yl)thio)phenyl)-4-(4-methyl-2-thienyl)-1-phthalazinamine]	< 100	< 100	< 100
Clc1ccc(-c2nnc(Nc3ccc(Sc4ccnc5ccnn45)cc3)c3ccccc23)nc1 [Example 20, 4-(5-chloro-2-pyridinyl)-N-(4-(pyrazolo[1,5-a]pyrimidin-7-ylthio)phenyl)-1-phthalazinamine]	< 100	< 100	< 100
Cc1csc(-c2nnc(Nc3ccc(Oc4ncnn5cccc45)cc3)c3ccccc23)c1 [Example 24, 4-(4-methyl-2-thienyl)-N-(4-(pyrrolo[2,1-f][1,2,4]triazin-4-yloxy)phenyl)-1-phthalazinamine]	100 to 500	100 to 500	< 100
Cc1csc(-c2nnc(Nc3ccc(Sc4ccnc5cc(C6CC6)nn45)cc3)c3ccccc23)c1 [Example 23, N-(4-((2-cyclopropylpyrazolo[1,5-a]pyrimidin-7-yl)thio)phenyl)-4-(4-methyl-2-thienyl)-1-phthalazinamine]	< 100	< 100	100 to 500
COCCOc1cc2nccc(Sc3ccc(Nc4nnc(-c5ccccc5)c5ccccc45)cc3)n2n1 [Example 27, N-(4-((2-((2-(methyloxy)ethyl)oxy)pyrazolo[1,5-a]pyrimidin-7-yl)thio)phenyl)-4-phenyl-1-phthalazinamine]	100 to 500	< 100	< 100

More lines, now with the values ahead:

IC50 (AuroraA-TPX2) [nM]	EC50 (HeLa cells) [nM]	IC50 (AuroraB) [nM]	Structure (SMILES)
500 to 2500	500 to 2500	< 100	Clc1ccc(-c2nnc(Nc3ccc(Oc4ncnn5cccc45)cc3)c3ccccc23)cc1 [Example 3, 4-(4-Chlorophenyl)-N-(4-(pyrrolo[2,1-f][1,2,4]triazin-4-yloxy)phenyl)-1-phthalazinamine]
> 2500	100 to 500	< 100	Clc1ccc(-c2nnc(Nc3ccc(Sc4ncnn5cccc45)cc3)c3ccccc23)cc1 [Example 25, 4-(4-chlorophenyl)-N-(4-(pyrrolo[2,1-f][1,2,4]triazin-4-ylthio)phenyl)-1-phthalazinamine]
500 to 2500	100 to 500	< 100	Cc1csc(-c2nnc(Nc3ccc(Sc4ncnn5cccc45)cc3)c3ccccc23)c1 [Example 26, 4-(4-methyl-2-thienyl)-N-(4-(pyrrolo[2,1-f][1,2,4]triazin-4-ylthio)phenyl)-1-phthalazinamine]
–	100 to 500	–	C=CCOc1cc2nccc(Sc3ccc(Nc4nnc(-c5ccc(Cl)cc5)c5ccccc45)cc3)n2n1 [Example 4, N-(4-(2-(allyloxy)pyrazolo[1,5-a]pyrimidin-7-ylthio)phenyl)-4-(4-chlorophenyl)phthalazin-1-amine]
< 100	< 100	< 100	COCCOc1cc2nccc(Sc3ccc(Nc4nnc(-c5ccc(Cl)cc5)c5ccccc45)cc3)n2n1 [Example 6, 4-(4-Chlorophenyl)-N-(4-(2-(2-methoxyethoxy)pyrazolo[1,5-a]pyrimidin-7-ylthio)phenyl)phthalazin-1-amine]
100 to 500	100 to 500	< 100	Clc1ccc(-c2nnc(Nc3ccc(Oc4ccnn5cccc45)cc3)c3ccccc23)cc1 [Example 2, 4-(4-Chlorophenyl)-N-(4-(pyrrolo[1,2-b]pyridazin-4-yloxy)phenyl)-1-phthalazinamine]
